# According to patent US11071731B2, “Allosteric modulators of the mu opioid receptor” (Chiromics, LLC, priority 2017, dated 2021):
# Experiments:
# [1] = target: T1, mu opioid receptor (MOR) (Homo sapiens, UniProt P35372); experiment: PathHunter β-arrestin recruitment assay, PAM mode with EC20 endomorphin-1; format: cell-based
# How it was run: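 Enzyme fragment complementation read-out: β-gal ED fragment fused to receptor, EA fused to β-arrestin, recruitment restoring β-gal activity detected by chemiluminescence. EC50 and percent maximal response derived for each compound.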
# [2] = target: T1, mu opioid receptor (MOR); experiment: Hit Hunter cAMP signaling assay (adenylyl cyclase inhibition), PAM mode with EC20 endomorphin-1; format: cell-based
# [3] = maximal response for β-arrestin recruitment
# [4] = β-arrestin recruitment, read-out: β-arr. EC50
# [5] = cAMP EC50, adenylyl cyclase inhibition
# [6] = maximal response for adenylyl cyclase inhibition
# [7] = maximal response, β-arrestin recruitment
# [8] = adenylyl cyclase inhibition, read-out: cAMP EC50
# [9] = maximal response, adenylyl cyclase inhibition
# T1 sequence (P35372 whole entry, the tested form may be a part): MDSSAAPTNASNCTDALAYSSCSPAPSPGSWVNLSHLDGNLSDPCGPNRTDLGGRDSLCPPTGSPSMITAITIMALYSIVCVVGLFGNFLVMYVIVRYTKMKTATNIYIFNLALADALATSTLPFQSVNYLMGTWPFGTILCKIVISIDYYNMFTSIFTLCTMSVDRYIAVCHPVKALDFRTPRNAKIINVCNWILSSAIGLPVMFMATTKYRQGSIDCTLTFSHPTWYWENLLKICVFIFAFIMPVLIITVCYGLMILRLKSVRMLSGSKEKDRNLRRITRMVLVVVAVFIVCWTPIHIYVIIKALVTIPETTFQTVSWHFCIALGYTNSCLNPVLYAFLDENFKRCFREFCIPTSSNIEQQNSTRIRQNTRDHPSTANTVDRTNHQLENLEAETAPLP
SMILES,"β-arr Max. Resp. [1, 3]","EC50 [1, 4] [µM]","EC50 [2, 5] [µM]","cAMP Max. Resp. [2, 6]","EC50 [2, 8] [µM]",also measured
Fc1ccc(Cl)cc1CN1CCCCC1c1cccc(OC(F)(F)F)n1 (centres unmarked) [compound 169],F (F represents a maximal response of > 60%),< 0.7,< 0.7,F (F represents a maximal response of > 60%),–,–
Fc1cnc(Cl)nc1N1CCCCC1c1cccc(Cl)n1 (centres unmarked) [compound 276],E (E represents a maximal response of 40-60%),–,–,D (D represents a maximal response of < 40%),–,"EC50 ([1]; β-arr. EC50, β-arrestin recruitment): > 2.1 µM; EC50 [2]: 0.7 to 2.1 µM"
Fc1ccc(C2CSCCN2c2nc(Cl)ncc2F)cc1Cl (centres unmarked) [Compound 460],–,> 2.1,–,–,> 2.1,"β-arr Max. Resp. [1, 7]: F (F represents a maximal response of > 60%); cAMP Max. Resp. [2, 9]: F (F represents a maximal response of > 60%)"
Cc1cnc(Cl)nc1N1CCCCC1c1cccc(F)n1 (centres unmarked) [compound 267],D (D represents a maximal response of < 40%),> 2.1,> 2.1,E (E represents a maximal response of 40-60%),–,–
Fc1cnc(Cl)nc1N1CCCCC1c1cc(C(F)(F)F)ccn1 (centres unmarked) [compound 278],F (F represents a maximal response of > 60%),> 2.1,0.7 to 2.1,F (F represents a maximal response of > 60%),–,–
Fc1cc(C2COCCN2c2nc(Cl)ncc2F)cc(C(F)(F)F)c1 (racemic) [Compound 190],F (F represents a maximal response of > 60%),0.7 to 2.1,–,F (F represents a maximal response of > 60%),< 0.7,–
Cc1ncc(Cl)c(C2CCCCN2c2nc(Cl)ncc2F)n1 (centres unmarked) [compound 392],D (D represents a maximal response of < 40%),< 0.7,< 0.7,D (D represents a maximal response of < 40%),–,–
COc1ccc(C2C(C)CCN2S(=O)(=O)c2ccc(Cl)cc2)cc1Br (mixture of isomers) [Compound 102],F (F represents a maximal response of > 60%),> 2.1,–,E (E represents a maximal response of 40-60%),0.7 to 2.1,–
Fc1cnc(Cl)nc1N1CCCCC1c1cc(Cl)cnc1F (centres unmarked) [compound 390],D (D represents a maximal response of < 40%),< 0.7,< 0.7,D (D represents a maximal response of < 40%),–,–
FC(F)(F)c1ccc(N2CCCCC2c2cccc(C(F)(F)F)n2)cc1 (centres unmarked) [compound 452],–,> 2.1,> 2.1,–,–,"β-arr Max. Resp. [1, 7]: E (E represents a maximal response of 40-60%); cAMP Max. Resp. [2, 9]: D (D represents a maximal response of < 40%)"
CC1CC(c2cc(F)cc(C(F)(F)F)c2)N(c2nc(Cl)ncc2F)C1 (centres unmarked) [compound 450],–,> 2.1,–,–,> 2.1,"β-arr Max. Resp. [1, 7]: F (F represents a maximal response of > 60%); cAMP Max. Resp. [2, 9]: E (E represents a maximal response of 40-60%)"
"Fc1ccc(C2CCCCN2c2nc(Cl)ncc2F)cc1Cl (single isomer, unassigned) [compound 343]",D (D represents a maximal response of < 40%),< 0.7,–,D (D represents a maximal response of < 40%),< 0.7,–
FC(F)(F)c1cccc(C2CCCCN2c2ccc(Cl)cc2)n1 (centres unmarked) [compound 454],–,> 2.1,–,–,> 2.1,"β-arr Max. Resp. [1, 7]: E (E represents a maximal response of 40-60%); cAMP Max. Resp. [2, 9]: D (D represents a maximal response of < 40%)"
COC(=O)c1ccc(N2CCCCC2c2ccc(F)c(Cl)c2)cc1 (centres unmarked) [compound 477],–,> 2.1,> 2.1,–,–,"β-arr Max. Resp. [1, 7]: F (F represents a maximal response of > 60%); cAMP Max. Resp. [2, 9]: D (D represents a maximal response of < 40%)"
FC(F)(F)c1cccc(C2CCCCN2Cc2cccc(Cl)c2)c1 (centres unmarked) [compound 154],F (F represents a maximal response of > 60%),< 0.7,< 0.7,E (E represents a maximal response of 40-60%),–,–
C#Cc1ccccc1N1CCCCC1c1ccc(F)c(Cl)c1 (centres unmarked) [compound 463],–,> 2.1,–,–,> 2.1,"β-arr Max. Resp. [1, 7]: D (D represents a maximal response of < 40%); cAMP Max. Resp. [2, 9]: D (D represents a maximal response of < 40%)"
O=S(=O)(c1ccc(Cl)cc1)N1CCCCC1c1cc(F)ccn1 (racemic) [compound 62],F (F represents a maximal response of > 60%),> 2.1,–,D (D represents a maximal response of < 40%),> 2.1,–
Cc1c(C2CCCCN2c2nc(Cl)ncc2F)cccc1C(F)(F)F (centres unmarked) [compound 135],F (F represents a maximal response of > 60%),0.7 to 2.1,< 0.7,D (D represents a maximal response of < 40%),–,–

SMILES,"β-arr Max. Resp. [1, 3]","EC50 [1, 4] [µM]","EC50 [2, 5] [µM]","cAMP Max. Resp. [2, 6]","EC50 [2, 8] [µM]",also measured
Fc1cnc(Cl)nc1N1CCCCC1c1ccc2ncsc2c1 (centres unmarked) [compound 341],D (D represents a maximal response of < 40%),< 0.7,< 0.7,D (D represents a maximal response of < 40%),–,–
COc1ccc(N2CCCCC2c2cccc(C(F)(F)F)n2)cc1 (centres unmarked) [compound 474],–,> 2.1,–,–,> 2.1,"β-arr Max. Resp. [1, 7]: D (D represents a maximal response of < 40%); cAMP Max. Resp. [2, 9]: D (D represents a maximal response of < 40%)"
COc1ncc(F)c(N2CCCCC2c2ccc(F)c(Cl)c2)n1 (centres unmarked) [compound 461],–,> 2.1,> 2.1,–,–,"β-arr Max. Resp. [1, 7]: F (F represents a maximal response of > 60%); cAMP Max. Resp. [2, 9]: E (E represents a maximal response of 40-60%)"
[2H]C1(c2ccc(F)c(Br)c2)C(F)CCCN1Cc1cccc(Cl)c1 (centres unmarked) [compound 203],F (F represents a maximal response of > 60%),> 2.1,< 0.7,D (D represents a maximal response of < 40%),–,–
Fc1cnc(Cl)nc1N1CC(F)(F)CC1c1cccc(C(F)(F)F)n1 (centres unmarked) [compound 482],–,> 2.1,–,–,> 2.1,"β-arr Max. Resp. [1, 7]: D (D represents a maximal response of < 40%); cAMP Max. Resp. [2, 9]: D (D represents a maximal response of < 40%)"
Fc1ccc(C2CCCCN2c2nc(Cl)ncc2F)cc1F (centres unmarked) [compound 129],F (F represents a maximal response of > 60%),< 0.7,0.7 to 2.1,E (E represents a maximal response of 40-60%),–,–
O=S(=O)(c1ccc(Cl)cc1)N1CCCCC1c1cc(C(F)(F)F)ccn1 (racemic) [compound 79],F (F represents a maximal response of > 60%),> 2.1,–,D (D represents a maximal response of < 40%),> 2.1,"β-arrestin Max Response ([1]; β-arrestin recruitment, activity switching by MOR PAMs): F (F represents a maximal response of >60%); EC50 ([1]; β-arrestin recruitment, activity switching by MOR PAMs, read-out: β-arrestin EC50): > 2.1 µM; cAMP Max Resp. ([2]; adenylyl cyclase inhibition, activity switching by MOR PAMs): D (D represents a maximal response of < 40%); EC50 ([2]; adenylyl cyclase inhibition, activity switching by MOR PAMs, read-out: cAMP EC50): > 2.1 µM"
Cc1cncc(C2CCCCN2c2nc(Cl)ncc2F)c1 (centres unmarked) [compound 330],D (D represents a maximal response of < 40%),< 0.7,< 0.7,D (D represents a maximal response of < 40%),–,–
O=S(=O)(c1ccc(Cl)cc1)N1CCCCC1c1cccc(OC(F)(F)F)n1 (racemic) [compound 48],F (F represents a maximal response of > 60%),> 2.1,–,E (E represents a maximal response of 40-60%),> 2.1,–
O=S(=O)(Cc1ccc(Cl)c(Cl)c1)N1C2CCC(C2)C1c1ccc(F)c(Br)c1 (centres unmarked) [Compound 181],E (E represents a maximal response of 40-60%),> 2.1,–,D (D represents a maximal response of < 40%),> 2.1,–
CCC1CCCN(c2nc(Cl)ncc2F)C1c1ccc(OC)c(Br)c1 (centres unmarked) [compound 248],F (F represents a maximal response of > 60%),> 2.1,–,E (E represents a maximal response of 40-60%),> 2.1,–
COc1ccc(C2CC(C(F)(F)F)CN2S(=O)(=O)c2ccc(Cl)cc2)cc1Br (mixture of isomers) [Compound 86],D (D represents a maximal response of < 40%),> 2.1,–,D (D represents a maximal response of < 40%),> 2.1,–
COc1ncc(N2CCCCC2c2cccc(C(F)(F)F)c2)c(F)n1 (centres unmarked) [compound 295],D (D represents a maximal response of < 40%),> 2.1,–,D (D represents a maximal response of < 40%),> 2.1,–
CNc1cccc(C2CCCCN2Cc2cc(Cl)ccc2F)n1 (centres unmarked) [compound 168],F (F represents a maximal response of > 60%),> 2.1,> 2.1,F (F represents a maximal response of > 60%),–,–
"[2H]C1(c2cccc(C(F)(F)F)c2)C(F)CCCN1c1nc(Cl)ncc1F (single isomer, unassigned) [compound 209]",F (F represents a maximal response of > 60%),0.7 to 2.1,–,D (D represents a maximal response of < 40%),–,–
COc1ncc(F)c(N2CCCCC2c2ccc(OC)c(Br)c2)n1 (centres unmarked) [compound 225],F (F represents a maximal response of > 60%),> 2.1,> 2.1,F (F represents a maximal response of > 60%),–,–
Fc1cnc(Cl)nc1C1CCCCN1c1nc(Cl)ncc1F (centres unmarked) [compound 357],D (D represents a maximal response of < 40%),< 0.7,< 0.7,D (D represents a maximal response of < 40%),–,–
